Experimental data: article PMC4047118, “BM-1197: A Novel and Specific Bcl-2/Bcl-xL Inhibitor Inducing Complete and Long-Lasting Tumor Regression In Vivo” (PLoS ONE, 2014)

Experiments:
H1417 = assay: SCLC cell growth inhibition (WST-8), H1417; format: cell-based; conditions: Homo sapiens, NCI-H1417; 96-h incubation, means ± SD (n = 3–6)
Description: (§1) All the SCLC cell lines were purchased from American Type Culture Collection (Manassas, VA) and cultured as recommended. All these cell lines were passaged fewer than 6 months after purchase. MCL1 knockout (MCL1^−/−) MEF cells were kindly provided by Dr. David Huang (The Walter and Eliza Hall Institute of Medical Research, Melbourne, Australia). Cell growth inhibition was evaluated by means of a WST-8 assay (Dojindo, Rockville, MD) as described previously. Mitochondrial membrane potential was determined by JC-1 staining using a JC-1 Mitochondrial Membrane Potential Assay kit (Cayman). Apoptosis analysis was performed using an Annexin V/propidium iodide (PI) apoptosis detection kit (Roche Applied Sciences, Indianapolis, IN).

H1963 = assay: SCLC cell growth inhibition (WST-8), H1963; format: cell-based; conditions: Homo sapiens, NCI-H1963; 96-h incubation, means ± SD (n = 3–6)
Description: as §1

DMS79 = assay: SCLC cell growth inhibition (WST-8), DMS79; format: cell-based; conditions: Homo sapiens, DMS-79; 96-h incubation, means ± SD (n = 3–6)
Description: as §1

[1] = system: BM-1197-insensitive SCLC cell lines; assay: MCL1 shRNA knockdown, growth inhibition by WST assay; format: cell-based, human; conditions: MCL1 shRNA 2 days, then drug 2 days
Description: ON-TARGETplus SMARTpools for mouse Bax and Bak and non-targeting negative control siRNAs were obtained from Dhamarcon. Transfection was performed using Lipofectamine RNAiMAX (Invitrogen). Lentiviral vector for scrambled and human MCL1 shRNA and lentivirus infection were described previously. Immunoblotting was performed using a published procedure. For immunoprecipitation assays, cells lysed with CHAPS buffer (150 mM NaCl, 10 mM HEPES [pH 7.4], 0.5% Chaps) or Triton buffer (150 mM NaCl, 10 mM HEPES [pH 7.4], 0.5% Triton X-100) supplemented with Complete protease inhibitors (Roche). Immunoprecipitation and immunoblot assays were performed with the indicated antibodies. Active Bax was detected by immunoprecipitation with the Bax 6A7 antibody, which recognizes only the conformationally changed Bax protein [27].
Figure 12 Effects of MCL1 knockdown on BM-1197-induced apoptosis. (A) Cells were transduced with lentiviral particles containing scrambled (SCR) or MCL1-specific shRNAs for 2 days, then treated with BM-1197 for 2 days. The growth-inhibitory activity of BM-1197 was assessed by WST assay. Data are representative of three independent experiments. (B) Cells were transduced with lentiviral particles containing scrambled (SCR) or MCL1-specific shRNAs for 2 days then treated with BM-1197 (100 nM) for 20 h before harvested for immunoblotting.

Bcl-xL = Bcl-xL (Homo sapiens, UniProt Q07817); assay: fluorescence-polarization (FP) binding assay, Bcl-xL; conditions: means ± SD (n≥3)
Excerpt: (§2) BM-1197 ( Fig 1 ), was synthesized in a similar manner as described for BM-1074 [16]. We evaluated the binding affinities of BM-1197 to Bcl-2, Bcl-xL and Mcl-1 proteins using our optimized fluorescence-polarization (FP) binding assays.
Data are expressed as means ± SD (n≥3).

Mcl-1 = Mcl-1 (Homo sapiens, UniProt Q07820); assay: fluorescence-polarization (FP) binding assay, Mcl-1
Excerpt: as §2, with “assays. […] Of note, the binding affinities of these compounds to Bcl-2 and Bcl-xL proteins are close to the lower limits of the assay and their precise Ki values could not be determined accurately using our competitive, FP binding assays.” for “assays.”

[2] = system: MCL1-wild-type (WT) MEF cells; assay: cell growth inhibition, WST assay, wild-type MEF; format: cell-based; conditions: Mus musculus, 72 h, 3 days
Description: as §1
(B) MCL1^−/− cells were treated with 100 nM of BM-1197 for 16 h and stained with Annexin V/PI for flow cytometry. […] They are given in the order upper left, upper right, lower left, lower right.

H82 = assay: SCLC cell growth inhibition (WST-8), H82; format: cell-based; conditions: Homo sapiens, NCI-H82; 96-h incubation, means ± SD (n = 3–6)
Description: as §1

Mcl-1, sequence (Q07820 whole entry): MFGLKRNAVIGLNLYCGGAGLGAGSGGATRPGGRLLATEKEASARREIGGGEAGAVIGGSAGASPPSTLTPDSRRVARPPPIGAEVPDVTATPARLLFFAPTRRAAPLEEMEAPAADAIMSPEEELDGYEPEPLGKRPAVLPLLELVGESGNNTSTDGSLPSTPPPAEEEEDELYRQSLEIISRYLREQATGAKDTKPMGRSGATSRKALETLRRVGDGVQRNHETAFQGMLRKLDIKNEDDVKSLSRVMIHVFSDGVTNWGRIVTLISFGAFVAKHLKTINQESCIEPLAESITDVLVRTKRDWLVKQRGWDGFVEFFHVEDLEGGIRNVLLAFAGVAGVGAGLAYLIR
Bcl-xL, sequence (Q07817 whole entry): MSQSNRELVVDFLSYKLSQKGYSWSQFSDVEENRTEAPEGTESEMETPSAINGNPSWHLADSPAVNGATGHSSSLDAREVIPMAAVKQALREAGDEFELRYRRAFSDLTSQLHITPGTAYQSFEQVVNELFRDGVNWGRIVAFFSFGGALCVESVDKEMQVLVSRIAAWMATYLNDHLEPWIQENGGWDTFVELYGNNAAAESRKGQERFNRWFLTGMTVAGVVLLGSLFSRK

IC50 (H1417): 3 ± 1 nM | IC50 (H1963): 5 ± 2 nM | IC50 (Bcl-xL): 5.2 ± 0.6 nM | Ki (Bcl-xL): < 1 nM | binding to Mcl-1 (Mcl-1; at 2 µM): fails to bind | selectivity over Mcl-1 (Mcl-1; versus Bcl-2 and Bcl-xL): > 1,000 fold
SMILES: Cc1c(S(C)(=O)=O)c(-c2cc(F)cc(N3CCN(c4ccc(NS(=O)(=O)c5ccc(N[C@H](CCN6CCC(O)CC6)CSc6ccccc6)c(S(=O)(=O)C(F)(F)F)c5)cc4)CC3)c2)c(-c2ccc(Cl)cc2)n1C(C)C [BM-1197]
IC50 (DMS79): 54 ± 30 nM | insensitive cell lines in which depletion of MCL1 dramatically enhanced inhibitory activity [1]: 4 of 5 | IC50 [2]: > 2000 nM | IC50 (H82): 698 ± 354 nM
